How the values were obtained:
[1] = system: human fibroblast (HFB) cells; assay: Cell cytotoxicity assay (MTS), human fibroblast; type: cell-based; settings: normal cell line HFB
Procedure: (§1) Cells were seeded into the wells of 96-well plates (2000 cells/well). After an overnight culture, the cells were treated with different concentrations of a compound for 72 h. The CellTiter 96 AQueous one-solution cell proliferation assay (MTS) reagent was used to determine cytotoxicity. After treatment with a compound, 20 μL of the MTS reagent was added to each well and the plates were incubated at 37° C. for 1-4 h. Next, the absorbance at 490 nm of the culture medium in each well was determined using a VersaMax microplate reader (Molecular Devices).

[2] = target: colchicine site of tubulin (Sus scrofa, UniProt P02554); assay: Colchicine competition assay; type: binding; settings: 37° C. for 1 h
Procedure: Tubulin ([…]) and colchicine ([…]) were incubated with the various concentrations of AS1712, nocodazole, or vincristine in 80 mM PIPES, 2 mM MgCl2, 0.5 mM EGTA, pH 6.9 at 37° C. for 1 h. Fluorescence intensities (excitation and emission wavelengths at 365 and 435 nm, respectively) were recorded using an Infinite M200 plate reader (Tecan). Fluorescence values were normalized to the DMSO control.

Colon205 = assay: Cell cytotoxicity assay (MTS), Colon205; type: cell-based; settings: Homo sapiens
Procedure: as §1

SAS = assay: Cell cytotoxicity assay (MTS), SAS; type: cell-based; settings: Homo sapiens
Procedure: as §1

37T = assay: Cell cytotoxicity assay (MTS), 37T; type: cell-based; settings: Homo sapiens, 72 h
Procedure: as §1

HDQP1/TAX = assay: Cell cytotoxicity assay, HDQP1/TAX; type: cell-based, human
Procedure: as §1

Ovcar-3 = assay: Cell cytotoxicity assay (MTS), Ovcar-3; type: cell-based; settings: Homo sapiens
Procedure: as §1

SW620 = assay: Cell cytotoxicity assay (MTS), SW620; type: cell-based; settings: Homo sapiens, SW-620
Procedure: as §1

HFB cells = assay: Pro-apoptotic protein immunoblotting, HFB; type: cell-based, human; settings: 24 to 72 h, normal HFB cells
Procedure: The cells were harvested and lysed in RIPA buffer (20 mM Tris-HCl, 150 mM NaCl, 1 mM Na2EDTA, 1% sodium deoxycholate, 1% IGEPAL CA-630, 0.1% SDS, pH 7.5) with protease inhibitors (Roche). Protein concentration was measured by the BCA assay. For immunoprecipitation, protein extracts were incubated with mag-beads-AS1712 or mag-beads-control at 4° C. overnight and then washed five times with PBS before immunoblotting. For immunoblotting, equivalent amounts of denatured proteins were separated through SDS-PAGE gels and then transferred to PVDF membranes (Millipore), which were each blocked with 5% nonfat milk in PBS and 0.1% Tween-20 (Sigma Aldrich) for 1 h. Then each membrane was incubated with a primary antibody overnight at 4° C., followed by incubation with a horseradish peroxidase conjugated secondary antibody for 1 h at room temperature. The signal was visualized by enhanced chemiluminescence detection, and images were acquired using a BioSpectrum Imaging System (UVP).

KB = assay: Cell cytotoxicity assay (MTS), KB; type: cell-based; settings: Homo sapiens
Procedure: as §1

Purified porcine tubulin = target: T1, Purified porcine tubulin (Sus scrofa, UniProt P02554); assay: In vitro tubulin polymerization assay; type: biochemical; settings: 5 μM, A340 every min for 1 h at 37° C.
T1 construct: purchased Cytoskeleton
Procedure: Reagents from a Tubulin Polymerization Assay kit (Cytoskeleton) were used according to the manufacturer's instructions. Purified porcine tubulin (4 mg/mL; >99% purity) in G-PEM buffer (80 mM PIPES, 2 mM MgCl2, 0.5 mM EGTA, 1 mM GTP, 15% glycerol, pH 6.9) was mixed with each test compound in the wells of a 96-well plate. Then, the A340 value was recorded each minute for 1 h at 37° C. with the VersaMax microplate reader.

[3] = system: A549, CL1-0, PC9, and H1975; assay: MTS assay, non-small cell lung cancer cell lines; type: cell-based; settings: Homo sapiens; A549, CL1-0, PC9, H1975; 72 h MTS; read-out: IC50 values for the affected cell lines
Procedure: as §1

HDQP1 = assay: Cell cytotoxicity assay, HDQP1; type: cell-based; settings: Homo sapiens, HDQ-P1; TNBC cell line HDQP1
Procedure: as §1

23 cancer cell lines = assay: Cytotoxicity against 23 cancer cell lines; type: cell-based, human
Procedure: as §1

KBvin = assay: Cell cytotoxicity assay (MTS), KBvin; type: cell-based, human
Procedure: as §1

HT-29 = assay: Cell cytotoxicity assay (MTS), HT-29; type: cell-based; settings: Homo sapiens
Procedure: as §1

CL1-0 = assay: Cell cytotoxicity assay (MTS), CL1-0; type: cell-based; settings: Homo sapiens, CL1-0, 72 h
Procedure: as §1

CL1-0 and H1975 cells = assay: Cell cycle analysis (flow cytometry); type: cell-based, human; settings: 24 h, propidium iodide
Procedure: After treatment, cells were trypsinized and fixed in ice-cold 70% ethanol overnight. Fixed cells were washed with PBS and stained with 0.5 mL of a propidium iodide (10 μg/mL)/RNase (20 μg/mL) solution for 30 minutes. The cellular DNA content was analyzed with a FACSCanto flow cytometer (Becton Dickinson).

A549 = assay: Cell cytotoxicity assay (MTS), A549; type: cell-based; settings: Homo sapiens, A549, 72 h
Procedure: as §1

[4] = Body mass and serum biochemical markers, H1975 xenograft mice; type: in vivo, BALB/c nude mice; settings: for ALT (IU/L) / AST(IU/L) / BUN / Cre: day 25, mean ± SEM
Procedure: Using the H1975, MDA-MB-231, and KBtax xenograft models, tumors were established after inoculation into the right flanks of 6-week-old BALB/c nude mice (NARLabs, Taipei, Taiwan). After establishment of the tumors, vehicle and test compounds, which had been dissolved in DMSO, were each injected intraperitoneally into a separate group of animals three times per week. The body mass of each animal and tumor volumes were measured before each drug delivery. Tumor volume was calculated as 0.5W^2L (with W being the width of the smaller diameter and L being the length of the larger diameter). The animal experiment was carried out in accordance with the procedures and guidelines of the Institutional Animal Care and Use Committee, Institute of Biomedical Sciences, Academia Sinica.

BT-549 = assay: Cell cytotoxicity assay (MTS), BT-549; type: cell-based; settings: Homo sapiens, BT-549, 72 h
Procedure: as §1

With CCOC(=O)c1ccc2[nH]c(-c3ccccc3)cc(=O)c2c1 [AS1712, Ethyl 4-oxo-2-phenyl-1,4-dihydroquinoline-6-carboxylate] the IC50 [1] was over 10000 nM, the colchicine fluorescence [2] was “decreased the colchicine fluorescence in a dose-dependent manner” and the IC50 (Colon205) was 57 ± 5.17 nM. For the same compound, the IC50 (SAS) was 78 ± 10.4 nM, the IC50 (37T) was 34 ± 2.99 nM and the “RF, resistance factor (IC50 in resistant cell line/IC50 in parent cell line)” value (HDQP1/TAX; HDQP1/TAX vs HDQP1) was 0.92. For the same compound, the IC50 (HDQP1/TAX; Homo sapiens, HDQ-P1, Paclitaxel-resistant subline) was 63 ± 16.3 nM, the IC50 (Ovcar-3) was 28 ± 1.08 nM and the IC50 (SW620) was 35 ± 1.18 nM. The “PARP and caspase-3” value (HFB cells) was “not affected”, the IC50 (KB) was 37 ± 0.27 nM and the tubulin polymerization (Purified porcine tubulin) was “directly inhibit tubulin polymerization”. The IC50 [3] was 16 to 33 nM, the IC50 (HDQP1) was 68 ± 5.38 nM and the IC50 (23 cancer cell lines; Homo sapiens, lung, breast, ovarian, head and neck, colon, prostate, leukemia lines, read-out: IC50 values for the 23 cancer cell lines tested) was 16 to 84 nM. For the same compound, the therapeutic window (23 cancer cell lines; cancer cell lines vs normal cells) was over 100 fold, the IC50 (KBvin; Homo sapiens, KBvin, P-gp overexpressing, vincristine-selected KB subline) was 37 ± 0.77 nM and the “RF, resistance factor (IC50 in resistant cell line/IC50 in parent cell line)” value (KBvin; KBvin vs KB) was 1. The IC50 (HT-29) was 48 ± 0.62 nM, the IC50 (CL1-0) was 16 ± 2.48 nM and the “sub-G1 and G2/M-phase population” value (CL1-0 and H1975 cells) was “increased”. For the same compound, the IC50 (A549) was 20 ± 0.98 nM, the “ALT (IU/L)” value ([4]; 4 mg/kg) was 40.8 ± 11 IU/L and the “AST(IU/L)” value ([4]; 4 mg/kg) was 138.7 ± 58.6 IU/L. For the same compound, the “BUN” value ([4]; 4 mg/kg) was 23.2 ± 2.5 mg/dL, the “Cre” value ([4]; 4 mg/kg) was 0.26 ± 0.05 mg/dL and the “ALT (IU/L)” value ([4]; 8 mg/kg) was 54.2 ± 16 IU/L. For the same compound, the “AST(IU/L)” value ([4]; 8 mg/kg) was 170.8 ± 44.5 IU/L, the “BUN” value ([4]; 8 mg/kg) was 20.9 ± 1.5 mg/dL and the “Cre” value ([4]; 8 mg/kg) was 0.17 ± 0.02 mg/dL. For the same compound, the body mass ([4]; 4 or 8 mg/kg i.p. three times a week, end of experiment) was “non-toxic affected” and the IC50 (BT-549) was 33 ± 1.51 nM.
